Like-named read-outs stand apart in the source and are kept apart here.
Key:
[1] = Log P by HPLC on reversed phase columns (EEC directive 79/831 Annex V.A8); assay type: physicochemical; conditions: reversed phase HPLC column, LC-UV
Procedure: Measurement of Log P values was performed according to EEC directive 79/831 Annex V.A8 by HPLC (High Performance Liquid Chromatography) on reversed phase columns with the following methods: • ^[a] Log P value is determined by measurement of LC-UV, in an acidic range, with 0.1% formic acid in water and acetonitrile as eluent (linear gradient from 10% acetonitrile to 95% acetonitrile). • ^[b] Log P value is determined by measurement of LC-UV, in a neutral range, with 0.001 molar ammonium acetate solution in water and acetonitrile as eluent (linear gradient from 10% acetonitrile to 95% acetonitrile). […] Lambda-max-values were determined using UV-spectra from 200 nm to 400 nm and the peak values of the chromatographic signals.

soy bean plants = test: Plant compatibility test using soy bean plants; assay type: in vivo; conditions: soy bean young plants sprayed at 500 ppm, evaluated 6 days after application; 0% no damages, 100% totally damaged
Procedure: [table] To produce a suitable preparation of active compound, 1 part by weight of active compound is mixed with the stated amounts of solvent and emulsifier, and the concentrate is diluted with water to the desired concentration. Young plants are sprayed with the preparation of active compound at the stated application rate. The plants are then placed in a greenhouse at approximately 21° C. and a relative atmospheric humidity of approximately 80%. The test is evaluated 6 days after application and comprises plant damages like leaf deformation, chlorosis, necrosis, shoot damage or stunting. 0% means no damages are observed, while 100% means that the plants are totally damaged.

[2] = Hydrolysis stability test in homogeneous aqueous solution; assay type: physicochemical; conditions: 50° C., 24 hours, first order degradation assumed
Procedure: To produce a suitable preparation of active compound for the hydrolysis stability test, a 1000 ppm stock solution (1 mg/mL) of active compound in acetonitrile is prepared. Three aliquots of […] are pipetted into HPLC vials and diluted with 750 μL acetonitrile. In each vial 850 μL of the appropriate buffer solution (pH4, pH7 and pH9, CertiPUR, Fa. Merck) is added. The buffer containing HPLC vials are incubated in a heated sample tray at 50° C. for 24 hours. The amount A of the active compound is analyzed by HPLC (UV-peak areas at 210 nm) at eight points in time t: 0 min, 140 min, 350 min, 560 min, 770 min, 980 min, 1190 min, 1400 min. The half-life time (T1/2) of each active compound is calculated via linear regression by using the following equations (first order degradation assumed): [formula] [formula]

[3] = Photolysis stability test; assay type: physicochemical; conditions: dried film in MTP, irradiated at 30° C. and 480 W/m^2 (SUNTEST), first order degradation assumed
Procedure: The stability towards photolysis of the phenylamidines described in the prior art is good but an improved stability towards photolysis may be an advantage as it could offer a longer lasting efficacy when applied to plants by foliar application. The improved stability towards photolysis was proven by a […] stability test as described below: To produce a suitable preparation of active compound for the photolysis stability test, a 1000 ppm stock solution (1 mg/mL) of active compound in acetonitrile is prepared. Aliquots of […] of this stock solution are pipetted in three wells of a Bio-one microtiter plate (MTP) UVStar 96 (Fa. Greiner, Art. No. 655801). The MTP is dried overnight in the dark and then irradiated at 30° C. and 480 W/m^2 with a UV irradiation device SUNTEST XLS+ or SUNTEST CPS (Fa. Atlas). The amount A of the active compound is analyzed by HPLC (UV-peak areas at 210 nm) at five points in time t: 0 h, 2 h, 4 h, 6 h, 24 h by using the following method: 200 μL acetonitrile is added in the respective well of the MTP and the MTP is sealed with a Bio-one sealing foil, viewseal 80/140 mm (Fa. Greiner, Art. No. 676070). The MTPs are sonicated for 3 minutes and analysed by HPLC. The half-life time (T1/2) of each active compound is calculated via linear regression by using the following equations (first order degradation assumed): […]

[4] = acidic range, 0.1% formic acid in water and acetonitrile as eluent, read-out: LogP [a]
[5] = neutral range, 0.001 molar ammonium acetate solution in water and acetonitrile as eluent, read-out: LogP [b]

Compound	chromatographic logP [1, 4]	chromatographic logP [1, 5]	Necrosis in % (soy bean plants)	half-life at 59 µg/mL ([2]; buffer pH 7/acetonitrile, read-out: T1/2 (pH 7) (converted))	half-life at 59 µg/mL ([2]; buffer pH 9/acetonitrile, read-out: T1/2 (pH 9) (converted))	half-life [3]
CCN(C)/C=N/c1cc(C)c(Oc2ccccc2)cc1Br [Example I-02, N′-(2-bromo-5-methyl-4-phenoxyphenyl)-N-ethyl-N-methylimidoformamide]	1.61	4.67	10%			
CCN(C)C=Nc1cc(C)c(Oc2ccccc2)cc1F [Example I-03, N-ethyl-N′-(2-fluoro-5-methyl-4-phenoxyphenyl)-N-methylimidoformamide]	1.55	3.97				
Cc1cc([N+](=O)[O-])c(Br)cc1Oc1ccccc1 [VI-02, 1-bromo-4-methyl-2-nitro-5-phenoxybenzene]	4.51					
CCN(C)/C=N/c1cc(C)c(Oc2ccccc2)cc1Cl [Example I-01, N′-(2-chloro-5-methyl-4-phenoxyphenyl)-N-ethyl-N-methylimidoformamide]	1.6		50%	45 h	40 h	> 200 h
CCN(C)/C=N/c1cc(C)c(Oc2ccccc2)cc1C [Compound no. 1 known from WO2008/110313, reference compound]			90%			
Cc1cc(N)c(Br)cc1Oc1ccccc1 [VIII-02, 2-bromo-5-methyl-4-phenoxyaniline]	3.66	3.65				
